Measured values published in PubChem BioAssay (NCI).
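Interpolation was linear, between the two tested concentrations surrounding the appropriate level; five concentrations were tested over 48 hours in 96-well plates. TGI denotes the concentration required for complete inhibition of growth.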

Columns and labels:
Assay in all cases: DTP human tumour cell line panel, 48 h
[1] = tested on: MOLT-4 leukemia
[2] = tested on: DU-145 prostate
[3] = tested on: HL-60(TB) leukemia
[4] = tested on: NCI/ADR-RES ovarian
[5] = tested on: T-47D breast
[6] = tested on: KM12 colon
[7] = tested on: SK-MEL-2 melanoma
[8] = tested on: MDA-N
[9] = tested on: UACC-62 melanoma
[10] = tested on: SNB-19 CNS
[11] = tested on: NCI-H522 lung
[12] = tested on: NCI-H460 lung
[13] = tested on: ACHN renal
[14] = tested on: OVCAR-5 ovarian
[15] = tested on: HT29 colon
[16] = tested on: SN12C renal
[17] = tested on: MALME-3M melanoma
[18] = tested on: SF-539 CNS
[19] = tested on: U251 CNS
[20] = tested on: MDA-MB-435
[21] = tested on: PC-3 prostate
[22] = tested on: SNB-75 CNS
[23] = tested on: 786-0 renal
[24] = tested on: IGROV1 ovarian
[25] = tested on: SK-OV-3 ovarian
[26] = tested on: MDA-MB-231 breast
[27] = tested on: SK-MEL-5 melanoma
[28] = tested on: HOP-92 NSCLC
[29] = tested on: HS 578T breast
[30] = tested on: HCT-116 colon
[31] = tested on: SF-268 CNS
[32] = tested on: HCT-15 colon
[33] = tested on: RXF 393 renal
[34] = tested on: OVCAR-8 ovarian
[35] = tested on: SF-295 CNS
[36] = tested on: OVCAR-4 ovarian
[37] = tested on: RPMI-8226 leukemia
[38] = tested on: SR leukemia
[39] = tested on: CAKI-1 renal
[40] = tested on: LOX IMVI melanoma
[41] = tested on: EKVX NSCLC
[42] = tested on: UO-31 renal
[43] = tested on: NCI-H23 lung
[44] = tested on: A498 renal
[45] = tested on: CCRF-CEM leukemia
[46] = tested on: UACC-257 melanoma
[47] = tested on: TK-10 renal
[48] = tested on: SK-MEL-28 melanoma
[49] = tested on: A549 NSCLC
[50] = tested on: COLO 205 colon
[51] = tested on: SW-620 colon
[52] = tested on: HOP-62 NSCLC
[53] = tested on: K-562 leukemia
[54] = tested on: HCC-2998 colon
[55] = tested on: NCI-H226 lung
[56] = tested on: OVCAR-3 ovarian
[57] = tested on: MCF7 breast
[58] = tested on: M14 melanoma

## CCOC(=O)CCN1C(=O)C(=O)N(c2ccc(OC)cc2)C1=S
[1]
  TGI: > 100 µM
[2]
  TGI: > 100 µM
[3]
  TGI: > 100 µM
[4]
  TGI: > 100 µM
[5]
  TGI: > 100 µM
[6]
  TGI: > 100 µM
[7]
  TGI: > 100 µM
[8]
  TGI: > 100 µM
[9]
  TGI: 48.5 µM
[10]
  TGI: > 100 µM
[11]
  TGI: > 100 µM
[12]
  TGI: > 100 µM
[13]
  TGI: > 100 µM
[14]
  TGI: > 100 µM
[15]
  TGI: > 100 µM
[16]
  TGI: > 100 µM
[17]
  TGI: > 100 µM
[18]
  TGI: > 100 µM
[19]
  TGI: > 100 µM
[20]
  TGI: > 100 µM
[21]
  TGI: > 100 µM
[22]
  TGI: > 100 µM
[23]
  TGI: > 100 µM
[24]
  TGI: > 100 µM
[25]
  TGI: > 100 µM
[26]
  TGI: > 100 µM
[27]
  TGI: > 100 µM
[28]
  TGI: > 100 µM
[29]
  TGI: > 100 µM
[30]
  TGI: > 100 µM
[31]
  TGI: > 100 µM
[32]
  TGI: > 100 µM
[33]
  TGI: > 100 µM
[34]
  TGI: > 100 µM
[35]
  TGI: > 100 µM
[36]
  TGI: > 100 µM
[37]
  TGI: > 100 µM
[38]
  TGI: > 100 µM
[39]
  TGI: > 100 µM
[40]
  TGI: > 100 µM
[41]
  TGI: > 100 µM
[42]
  TGI: > 100 µM
[43]
  TGI: > 100 µM
[44]
  TGI: > 100 µM
[45]
  TGI: > 100 µM
[46]
  TGI: > 100 µM
[47]
  TGI: > 100 µM
[48]
  TGI: > 100 µM
[49]
  TGI: > 100 µM
[50]
  TGI: > 100 µM
[51]
  TGI: > 100 µM
[52]
  TGI: > 100 µM
[53]
  TGI: > 100 µM
[54]
  TGI: > 100 µM
[55]
  TGI: > 100 µM

## COC(=O)c1c2c(cc3c1CC1(Cc4cc5c(c(C(C)=O)c4C1)CCCC5)C3)CCCC2 (stereo unspecified)
[3]
  TGI: 46.3 µM
[4]
  TGI: > 100 µM
[5]
  TGI: > 100 µM
[6]
  TGI: > 100 µM
[7]
  TGI: 44.5 µM
[8]
  TGI: > 100 µM
[9]
  TGI: > 100 µM
[11]
  TGI: > 100 µM
[13]
  TGI: > 100 µM
[14]
  TGI: > 100 µM
[15]
  TGI: > 100 µM
[16]
  TGI: > 100 µM
[17]
  TGI: > 100 µM
[18]
  TGI: > 100 µM
[19]
  TGI: > 100 µM
[20]
  TGI: > 100 µM
[21]
  TGI: > 100 µM
[23]
  TGI: > 100 µM
[24]
  TGI: > 100 µM
[25]
  TGI: > 100 µM
[56]
  TGI: > 100 µM
[26]
  TGI: > 100 µM
[27]
  TGI: > 100 µM
[28]
  TGI: > 100 µM
[29]
  TGI: > 100 µM
[30]
  TGI: > 100 µM
[32]
  TGI: > 100 µM
[33]
  TGI: > 100 µM
[34]
  TGI: > 100 µM
[35]
  TGI: > 100 µM
[36]
  TGI: > 100 µM
[57]
  TGI: > 100 µM
[37]
  TGI: 87.5 µM
[38]
  TGI: 21 µM
[40]
  TGI: > 100 µM
[41]
  TGI: > 100 µM
[43]
  TGI: > 100 µM
[58]
  TGI: > 100 µM
[44]
  TGI: > 100 µM
[45]
  TGI: 88.1 µM
[46]
  TGI: > 100 µM
[47]
  TGI: > 100 µM
[49]
  TGI: > 100 µM
[50]
  TGI: > 100 µM
[52]
  TGI: > 100 µM
[53]
  TGI: > 100 µM
[54]
  TGI: > 100 µM
[55]
  TGI: > 100 µM

## O=[N+]([O-])/C=C(\CS(=O)(=O)c1ccccc1)c1ccc2c(c1)OCO2
[1]
  TGI: > 100 µM
[2]
  TGI: > 100 µM
[3]
  TGI: > 100 µM
[4]
  TGI: 49.2 µM
[5]
  TGI: > 100 µM
[6]
  TGI: 71.7 µM
[8]
  TGI: > 100 µM
[9]
  TGI: > 100 µM
[11]
  TGI: > 100 µM
[13]
  TGI: > 100 µM
[14]
  TGI: 95.1 µM
[15]
  TGI: > 100 µM
[16]
  TGI: > 100 µM
[18]
  TGI: > 100 µM
[19]
  TGI: > 100 µM
[20]
  TGI: 76.6 µM
[22]
  TGI: > 100 µM
[23]
  TGI: > 100 µM
[24]
  TGI: > 100 µM
[25]
  TGI: > 100 µM
[56]
  TGI: > 100 µM
[26]
  TGI: 64.1 µM
[27]
  TGI: > 100 µM
[28]
  TGI: > 100 µM
[29]
  TGI: > 100 µM
[30]
  TGI: > 100 µM
[31]
  TGI: > 100 µM
[32]
  TGI: > 100 µM
[33]
  TGI: > 100 µM
[34]
  TGI: > 100 µM
[35]
  TGI: > 100 µM
[57]
  TGI: > 100 µM
[37]
  TGI: > 100 µM
[38]
  TGI: > 100 µM
[39]
  TGI: 93.5 µM
[40]
  TGI: > 100 µM
[41]
  TGI: > 100 µM
[42]
  TGI: 98.7 µM
[43]
  TGI: 36.3 µM
[58]
  TGI: 71.4 µM
[44]
  TGI: 81.2 µM
[45]
  TGI: > 100 µM
[48]
  TGI: > 100 µM
[49]
  TGI: > 100 µM
[50]
  TGI: > 100 µM
[51]
  TGI: > 100 µM
[52]
  TGI: > 100 µM
[53]
  TGI: > 100 µM
[54]
  TGI: > 100 µM
[55]
  TGI: 84.5 µM

## CCOC(=O)C(=CNC(=S)N=Nc1c(O)[nH]c2ccccc12)C(=O)OCC
[1]
  TGI: > 100 µM
[2]
  TGI: > 100 µM
[3]
  TGI: > 100 µM
[4]
  TGI: > 100 µM
[5]
  TGI: > 100 µM
[6]
  TGI: > 100 µM
[7]
  TGI: > 100 µM
[8]
  TGI: > 100 µM
[9]
  TGI: > 100 µM
[10]
  TGI: > 100 µM
[12]
  TGI: > 100 µM
[13]
  TGI: > 100 µM
[14]
  TGI: > 100 µM
[15]
  TGI: > 100 µM
[16]
  TGI: > 100 µM
[18]
  TGI: > 100 µM
[19]
  TGI: > 100 µM
[20]
  TGI: > 100 µM
[21]
  TGI: > 100 µM
[22]
  TGI: > 100 µM
[23]
  TGI: > 100 µM
[25]
  TGI: > 100 µM
[56]
  TGI: > 100 µM
[26]
  TGI: > 100 µM
[27]
  TGI: > 100 µM
[28]
  TGI: > 100 µM
[29]
  TGI: > 100 µM
[30]
  TGI: > 100 µM
[31]
  TGI: > 100 µM
[33]
  TGI: > 100 µM
[34]
  TGI: > 100 µM
[35]
  TGI: > 100 µM
[36]
  TGI: > 100 µM
[57]
  TGI: > 100 µM
[37]
  TGI: > 100 µM
[38]
  TGI: > 100 µM
[39]
  TGI: > 100 µM
[40]
  TGI: > 100 µM
[42]
  TGI: > 100 µM
[43]
  TGI: > 100 µM
[58]
  TGI: > 100 µM
[44]
  TGI: > 100 µM
[45]
  TGI: > 100 µM
[46]
  TGI: > 100 µM
[47]
  TGI: > 100 µM
[48]
  TGI: > 100 µM
[49]
  TGI: > 100 µM
[50]
  TGI: > 100 µM
[51]
  TGI: > 100 µM
[52]
  TGI: > 100 µM
[53]
  TGI: > 100 µM
[54]
  TGI: > 100 µM
[55]
  TGI: > 100 µM
